Common to all, as to assay: DTP human tumour cell line panel, 48 h
The test system of experiment [1] is HCC-2998 colon.
Experiment [2] has as its system HCT-116 colon.
The test system of experiment [3] is HCT-15 colon.
The subject of experiment [4] is IGROV1 ovarian.
The test system of experiment [5] is MALME-3M melanoma.
Experiment [6] deals with NCI-H460 lung.
Experiment [7] deals with OVCAR-4 ovarian.
Experiment [8] has as its system TK-10 renal.
The test system of experiment [9] is UACC-257 melanoma.

“And” between values parts separate entries of the source, which are not always exact repeats. Equal entries are not always repeated.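 Tested at 5 concentrations; 48 h exposure; 96-well plates; endpoints linearly interpolated, else capped at highest concentration. GI50 marks 50% less growth. TGI denotes the concentration required for complete inhibition of growth.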

In general, GI50 refers to the concentration giving 50% growth inhibition. What is called TGI is the concentration at which net growth stops. The low end stands for more potent growth arrest, the high end for less potent growth arrest. On to `C=Cc1cncc(C#N)c1CCc1c(C#N)cncc1C=C`, for which the GI50 in experiment [1], in experiment [2], in experiment [3], in experiment [4], in experiment [5] and in experiment [6] was > 100 µM in each case. Also, the GI50 in experiment [8] and in [9] was > 100 µM each time. For the same molecule, the TGI in experiment [1], in experiment [2], in [3], in experiment [4], in [5] and in experiment [6] was > 100 µM each time. For the same molecule, the TGI is > 10 µM in [7], > 100 µM in experiment [8] and > 100 µM in experiment [9].
Consider `O=C1C=CC(=O)C2=C1[C@@H](O)C1CC=CC3C(=O)O[C@@H]2C31` (some centres not stated), for which the TGI in [1] is 34.6 µM; in experiment [2] it was 39.7 µM; in [3], 44.1 µM; in experiment [4] it was 22.6 µM; in experiment [5], 34.6 µM; in experiment [6] it was > 100 µM. Moreover, the TGI in [7] is 17.7 µM; in experiment [8], > 58.1 µM; in [9], > 57.5 µM.
`O=C(O)CC[C@H](NC(=O)c1ccc(-n2nc3ccc(O)cc3nc2=O)cc1)C(=O)O`: the TGI in experiment [1], in experiment [2], in [3], in experiment [4], in experiment [5] and in [6] was > 100 µM throughout. For the same molecule, the total growth inhibition concentration (TGI) in experiment [7], in experiment [8] and in experiment [9] was > 100 µM throughout.
For the molecule `C[C@H](OCc1ccccc1)C(=O)N1CCS(=O)(=O)N2CCC[C@@H]2C1=O`, the TGI in experiment [1], in [2], in experiment [3], in [4], in [5] and in experiment [6] was > 100 µM in each case. The TGI in experiment [7], in experiment [8] and in experiment [9] was > 100 µM each time.
In the case of `O=C1CCCCC1S(=O)(=O)c1ccccc1` (configuration not stated), the TGI in [1], in [2], in [3], in [4], in experiment [5] and in experiment [6] was > 100 µM in each case. The TGI in [7], in experiment [8] and in experiment [9] was > 100 µM in each case.
As for `O=S(=O)(/C=C/c1ccc(F)cc1)Cc1ccc(CS(=O)(=O)/C=C/c2ccc(F)cc2)cc1`, the TGI in experiment [1], in experiment [2], in experiment [3], in [4], in [5] and in [6] was > 100 µM each time. In addition, the TGI in [7], in experiment [8] and in experiment [9] was > 100 µM each time.
Turning to `COc1ccc(/C=C/c2cc(OC)c(OC)c(OC)c2)cc1`, the TGI in experiment [1] was 15.7 µM; in experiment [2], > 77.2 µM; in [3], > 93.5 µM; in experiment [4], > 100 µM; in experiment [5], 74.3 µM; in experiment [6] it was > 80.6 µM. Further, the total growth inhibition concentration (TGI) in experiment [7], in experiment [8] and in experiment [9] was > 100 µM each time.
As to `CC(CN(C)C)/C(=N\Nc1ccccc1)c1ccccc1` (configuration not stated), the TGI in experiment [2] is > 100 µM; in [3], 11.1 µM; in experiment [4] it was > 100 µM; in [5] it was 29.1 µM; in experiment [6] it was 15.5 µM; in experiment [7], 19.8 µM. Besides, the values for the total growth inhibition concentration (TGI) in experiment [8] and in [9] were 5.56 µM and 15.3 µM, respectively.
Regarding `CCOc1cc2c(C(=O)CC)c(O)ccc2o1`, the TGI in [1] was > 100 µM; in experiment [2], > 72.5 µM; in experiment [3], > 100 µM; in [4], > 100 µM; in experiment [5], > 100 µM; in [6] it was > 100 µM. Besides, the figures for the TGI in [7], in experiment [8] and in experiment [9] were > 56.8 µM, > 100 µM and > 100 µM, respectively.
As for `Cc1cn(C2CC3C(COCN3O)O2)c(=O)[nH]c1=O` (configuration not stated), the concentration for total growth inhibition (TGI) in experiment [1], in [2], in experiment [3], in experiment [4], in experiment [6] and in [7] was > 100 µM throughout. Moreover, the TGI in [8] and in experiment [9] was > 100 µM in each case.
For `C[C@@]12CCC(=O)c3coc(c31)C(=O)c1cc3c(cc12)C(=O)C=CC3=O`, the GI50 in experiment [1], in [2], in experiment [3], in experiment [4], in experiment [5] and in [6] was > 1 µM throughout. Also, the GI50 in experiment [7], in experiment [8] and in [9] was > 1 µM in each case. Besides, the total growth inhibition concentration (TGI) is > 100 µM in [1]; > 1 µM and 28.7 µM in experiment [2]; > 1 µM and 32.7 µM in [3]; > 1 µM and 59.3 µM in experiment [4]; > 1 µM and 31.3 µM in [5]; > 70.9 µM in experiment [6]. The TGI in [7] was > 1 µM and 32.1 µM; in experiment [8], > 61 µM; in experiment [9], > 1 µM and 23.8 µM.
Turning to `O=C(c1ccc(Cl)cc1Cl)C1[C@H]2C(=O)N(c3ccc(Cc4ccc(N5C(=O)[C@@H]6ON(c7ccccc7)C(C(=O)c7ccc(Cl)cc7Cl)[C@@H]6C5=O)cc4)cc3)C(=O)[C@H]2ON1c1ccccc1` (some centres not stated), the TGI in [1], in [2], in [3], in [4], in experiment [5] and in experiment [6] was > 50 µM in each case. The TGI in experiment [7], in experiment [8] and in experiment [9] was > 50 µM in each case.
As to `COc1c(O)c2c3c(cc(C)cc3c1C(C)C)OC2`, the TGI in experiment [1], in experiment [2], in [3], in [4], in experiment [5] and in [6] was > 100 µM in each case. In addition, the TGI in experiment [7], in [8] and in experiment [9] was > 100 µM each time.
